From PubChem BioAssay AID2060893 (Molecular Pharmacology Branch, DTP, NCI, 2025)
Values belong to the compound of their own block, whether it stands above or below them.

Test system: K86415-001-R-J1-PDC complex spheroids, viability
Assay: Anticancer human tumor K86415-001-R-J1-PDC patient-derived lung adenocarcinoma cell line growth inhibition [RAS]
Details: for IC50: curve of first compound; for viability, T/C: stronger effect = lower value
Source text: RAS pathway inhibitors in Combinations in Complex Spheroids
A high-throughput screen of multi-cell type tumor spheroids was designed to identify active combinations of RAS pathway inhibitors and targeted small molecules. Complex spheroids include a stromal component modeled by human endothelial cells (HUVEC) and fibroblasts modeled by human mesenchymal stem cells (MSCs). The concentration ranges selected for each drug and investigational agent were based upon clinically achievable concentrations if the clinical Cmax of the agent was known.
Compounds. The drugs and investigational agents: abemaciclib (NSC768073), cobimetinib (NSC768068), divarasib (GDC6063, NSC841802), docetaxel (NSC628503), GDC-1971 (RLY-1971, NSC841576), gemcitabine (NSC613327), inavolisib (NSC800729), ipatasertib (NSC767898), KB-0742 (NSC834161), MRTX-1133 (NSC836407), osimertinib (NSC779217), RMC-4630 (NSC839698), RMC-6236 (NSC851965), RMC-6291 (NSC852671), Ro-3306 (NSC812927), sapanisertib (NSC764658), SN-38 (NSC673596), staurosporine (NSC755774), SY5609 (NSC837396), and tovorafenib (DAY101, NSC766906), were obtained from the National Cancer Institute (NCI) Developmental Therapeutics Program Chemical Repository. The FDA-approved anticancer drug set is available from the NCI Developmental Therapeutics Program. […] The stock solutions were prepared in dimethyl sulfoxide (DMSO, Sigma-Aldrich, St. Louis, MO, cat. D2650) at 800-fold the tested concentration and stored at -70 degrees C prior to their use. All drugs and investigational agents were tested over a range starting from a high concentration at or near the clinical Cmax and decreasing in half-log increments. If the clinical Cmax for an agent had not been determined, the highest concentration tested was 10 microM.
Cell Culture. All cells were maintained in an incubator at 37 degrees C and 5% CO2 with 95% humidity. The PDC lines were cultured according to standard operating procedures established by the NCI PDMR. All PDCs were thawed and cultured in Matrigel-coated flasks prepared with a working solution of 1X Ham's F-12 nutrient mix, without supplementation (Invitrogen, Waltham, MA, cat. 11765054), 100 U/mL penicillin-streptomycin (Invitrogen, cat. 15140122), and 2.5% Matrigel (Corning Inc., Corning, NY, cat. 354248) for the first three passages. The 362531-283-R-J2-PDC and 782815-120-R-J1-PDC lines were cultured in 6C/Colon 1B media, which includes advanced DMEM/F-12 (Thermo Fisher Scientific, cat. 12634028), 10 mM HEPES (Thermo Fisher Scientific, cat. 15630080), 1X GlutaMAX supplement (Thermo Fisher Scientific, cat. 35050061), 0.1 mg/mL primocin (InvivoGen, San Diego, CA, cat. ant-pm-2), 10% defined fetal bovine serum, heat inactivated (HyClone Laboratories Inc., Logan, UT, cat. SH30070.03HI), 50% L-WRN conditioned media (ATCC, cat. CRL-3276), 1.25 mM N-Acetyl-L-cysteine (Sigma-Aldrich, cat. A9165), 10 mM nicotinamide (Sigma-Aldrich, cat. N0636), 1X B-27 supplement (Thermo Fisher Scientific, cat. 17504044), 1X N-2 supplement (Thermo Fisher Scientific, cat. 17502048), 50 ng/mL human EGF (Thermo Fisher Scientific, cat. PHG0311), and 10 microM Y-27632 dihydrochloride (Tocris Bioscience, cat. 1254). The K12877-001-R-J1-PDC line was cultured in 6I media, which includes all 6C/Colon 1B media plus 10 ng/mL human FGF-10 (PeproTech, cat. 100-26), 1 ng/mL human FGF-2 (PeproTech, cat. 100-18B), 1 µM prostaglandin E2 (Tocris Bioscience, cat. 2296), […] hydrocortisone (Sigma-Aldrich, cat. H4001), and […] bovine insulin (Sigma-Aldrich, cat. I6634). The K86415-001-R-J1-PDC line was cultured in 6D media, which includes all 6C/Colon 1B media components minus the L-WRN conditioned media. The 485176-168-R4-J1-PDC was cultured in PANC media, which includes all 6C/Colon 1B media plus 100 ng/mL human FGF-10 (PeproTech, cat. 100-26), 500 nM SB-431542 (Selleckchem, cat. S1067), and 10 nM gastrin (Tocris Bioscience, cat. 3006). […]

[1] = second compound 0.0316 µM, first compound 0.0316 µM
[2] = second compound 0.0316 µM, first compound 0.1 µM
[3] = second compound 0.0316 µM, first compound 0.316 µM
[4] = second compound 0.0316 µM, first compound 1 µM
[5] = second compound 0.0316 µM, first compound 3.16 µM
[6] = second compound 0.0316 µM, first compound 10 µM
[7] = second compound 0.1 µM, first compound 0.0316 µM
[8] = second compound 0.1 µM, first compound 0.1 µM
[9] = second compound 0.1 µM, first compound 0.316 µM
[10] = second compound 0.1 µM, first compound 1 µM
[11] = second compound 0.1 µM, first compound 3.16 µM
[12] = second compound 0.1 µM, first compound 10 µM
[13] = second compound 0.316 µM, first compound 0.0316 µM
[14] = second compound 0.316 µM, first compound 0.1 µM
[15] = second compound 0.316 µM, first compound 0.316 µM
[16] = second compound 0.316 µM, first compound 1 µM
[17] = second compound 0.316 µM, first compound 3.16 µM
[18] = second compound 0.316 µM, first compound 10 µM
[19] = second compound 1 µM, first compound 0.0316 µM
[20] = second compound 1 µM, first compound 0.1 µM
[21] = second compound 1 µM, first compound 0.316 µM
[22] = second compound 1 µM, first compound 1 µM
[23] = second compound 1 µM, first compound 3.16 µM
[24] = second compound 1 µM, first compound 10 µM
[25] = second compound 3.16 µM, first compound 0.0316 µM
[26] = second compound 3.16 µM, first compound 0.1 µM
[27] = second compound 3.16 µM, first compound 0.316 µM
[28] = second compound 3.16 µM, first compound 1 µM
[29] = second compound 3.16 µM, first compound 3.16 µM
[30] = second compound 3.16 µM, first compound 10 µM
[31] = second compound 10 µM, first compound 0.0316 µM
[32] = second compound 10 µM, first compound 0.1 µM
[33] = second compound 10 µM, first compound 0.316 µM
[34] = second compound 10 µM, first compound 1 µM
[35] = second compound 10 µM, first compound 3.16 µM
[36] = second compound 10 µM, first compound 10 µM
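Further: spheroids exposed to agents for seven days before readout.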

IC50 (second compound 0.0316 µM): 7490 nM
IC50 (second compound 0.1 µM): 7290 nM
IC50 (second compound 0.316 µM): 7560 nM
IC50 (second compound 1 µM): 4250 nM
IC50 (second compound 3.16 µM): < 31.6 nM
IC50 (second compound 10 µM): < 31.6 nM
SMILES: CC(C)NCC(C(=O)N1CCN(c2ncnc3c2C(C)CC3O)CC1)c1ccc(Cl)cc1 (stereo unspecified) + C#Cc1c(F)ccc2cc(O)cc(-c3ncc4c(N5CC6CCC(C5)N6)nc(OCC56CCCN5CC(F)C6)nc4c3F)c12
viability, T/C [1]: 109%
viability, T/C [2]: 106%
viability, T/C [3]: 106%
viability, T/C [4]: 89.6%
viability, T/C [5]: 72.3%
viability, T/C [6]: 42.6%
viability, T/C [7]: 113%
viability, T/C [8]: 103%
viability, T/C [9]: 113%
viability, T/C [10]: 90.4%
viability, T/C [11]: 68.7%
viability, T/C [12]: 43.1%
viability, T/C [13]: 97%
viability, T/C [14]: 94.1%
viability, T/C [15]: 90.9%
viability, T/C [16]: 84.7%
viability, T/C [17]: 64.4%
viability, T/C [18]: 45.3%
viability, T/C [19]: 74.4%
viability, T/C [20]: 62%
viability, T/C [21]: 56.2%
viability, T/C [22]: 65.1%
viability, T/C [23]: 54.8%
viability, T/C [24]: 39.3%
viability, T/C [25]: 35.2%
viability, T/C [26]: 38.2%
viability, T/C [27]: 26.3%
viability, T/C [28]: 25.8%
viability, T/C [29]: 38.4%
viability, T/C [30]: 25.6%
viability, T/C [31]: 18.7%
viability, T/C [32]: 15.8%
viability, T/C [33]: 16.4%
viability, T/C [34]: 24.7%
viability, T/C [35]: 16.9%
viability, T/C [36]: 5.88%

IC50 (second compound 0.0316 µM): 50 nM
IC50 (second compound 0.1 µM): 48.8 nM
IC50 (second compound 0.316 µM): 57.1 nM
IC50 (second compound 1 µM): 59 nM
IC50 (second compound 3.16 µM): < 0.316 nM
IC50 (second compound 10 µM): < 0.316 nM
SMILES: CC(C)n1nc(-c2ccc3oc(N)nc3c2)c2c(N)ncnc21 + C#Cc1c(F)ccc2cc(O)cc(-c3ncc4c(N5CC6CCC(C5)N6)nc(OCC56CCCN5CC(F)C6)nc4c3F)c12
viability, T/C (second compound 0.0316 µM, first compound 0.000316 µM): 96.9%
viability, T/C (second compound 0.0316 µM, first compound 0.001 µM): 105%
viability, T/C (second compound 0.0316 µM, first compound 0.00316 µM): 105%
viability, T/C (second compound 0.0316 µM, first compound 0.01 µM): 89.2%
viability, T/C [1]: 63.5%
viability, T/C [2]: 30.3%
viability, T/C (second compound 0.1 µM, first compound 0.000316 µM): 99.6%
viability, T/C (second compound 0.1 µM, first compound 0.001 µM): 120%
viability, T/C (second compound 0.1 µM, first compound 0.00316 µM): 102%
viability, T/C (second compound 0.1 µM, first compound 0.01 µM): 96.5%
viability, T/C [7]: 62.4%
viability, T/C [8]: 29.3%
viability, T/C (second compound 0.316 µM, first compound 0.000316 µM): 95.2%
viability, T/C (second compound 0.316 µM, first compound 0.001 µM): 94.7%
viability, T/C (second compound 0.316 µM, first compound 0.00316 µM): 92.3%
viability, T/C (second compound 0.316 µM, first compound 0.01 µM): 96.5%
viability, T/C [13]: 67.5%
viability, T/C [14]: 33.4%
viability, T/C (second compound 1 µM, first compound 0.000316 µM): 68.8%
viability, T/C (second compound 1 µM, first compound 0.001 µM): 70.6%
viability, T/C (second compound 1 µM, first compound 0.00316 µM): 68.1%
viability, T/C (second compound 1 µM, first compound 0.01 µM): 83%
viability, T/C [19]: 70%
viability, T/C [20]: 32.4%
viability, T/C (second compound 3.16 µM, first compound 0.000316 µM): 35.4%
viability, T/C (second compound 3.16 µM, first compound 0.001 µM): 40.3%
viability, T/C (second compound 3.16 µM, first compound 0.00316 µM): 38.2%
viability, T/C (second compound 3.16 µM, first compound 0.01 µM): 44.5%
viability, T/C [25]: 52.3%
viability, T/C [26]: 28.5%
viability, T/C (second compound 10 µM, first compound 0.000316 µM): 15.9%
viability, T/C (second compound 10 µM, first compound 0.001 µM): 17.6%
viability, T/C (second compound 10 µM, first compound 0.00316 µM): 15.1%
viability, T/C (second compound 10 µM, first compound 0.01 µM): 19.3%
viability, T/C [31]: 19.5%
viability, T/C [32]: 8.39%

IC50 (second compound 0.0316 µM): 1170 nM
IC50 (second compound 0.1 µM): 1620 nM
IC50 (second compound 0.316 µM): 1190 nM
IC50 (second compound 1 µM): 472 nM
IC50 (second compound 3.16 µM): < 31.6 nM
IC50 (second compound 10 µM): < 31.6 nM
SMILES: CC(Nc1ccc2c(c1)OCCn1cc(N3C(=O)OCC3C(F)F)nc1-2)C(N)=O (stereo unspecified) + C#Cc1c(F)ccc2cc(O)cc(-c3ncc4c(N5CC6CCC(C5)N6)nc(OCC56CCCN5CC(F)C6)nc4c3F)c12
viability, T/C [1]: 84.4%
viability, T/C [2]: 93.5%
viability, T/C [3]: 63.5%
viability, T/C [4]: 50.1%
viability, T/C [5]: 47.6%
viability, T/C [6]: 29.1%
viability, T/C [7]: 90.3%
viability, T/C [8]: 86.2%
viability, T/C [9]: 69.5%
viability, T/C [10]: 56%
viability, T/C [11]: 42.5%
viability, T/C [12]: 28.2%
viability, T/C [13]: 84.9%
viability, T/C [14]: 86.7%
viability, T/C [15]: 65.3%
viability, T/C [16]: 53.2%
viability, T/C [17]: 38.5%
viability, T/C [18]: 28.4%
viability, T/C [19]: 71.6%
viability, T/C [20]: 62%
viability, T/C [21]: 50.9%
viability, T/C [22]: 46.1%
viability, T/C [23]: 34.3%
viability, T/C [24]: 23.2%
viability, T/C [25]: 33.2%
viability, T/C [26]: 26.4%
viability, T/C [27]: 26.5%
viability, T/C [28]: 26.9%
viability, T/C [29]: 22.4%
viability, T/C [30]: 12.8%
viability, T/C [31]: 16.3%
viability, T/C [32]: 15.2%
viability, T/C [33]: 11.7%
viability, T/C [34]: 6.87%
viability, T/C [35]: 3.76%
viability, T/C [36]: 1.56%
